Key:
Mus musculus [1] = species: Mus musculus; assay: Anticonvulsant activity in mice, measured by maximal electroshock seizure (MES) test.; type: functional
Mus musculus [2] = species: Mus musculus; assay: Neurological deficit in mouse measured by rotarod test; type: functional
[3] = Protective index (Pi) was measured as the ratio of TD50/ED50 value in MES test; type: ADME
[4] = Protective index (PI), anticonvulsant activity, ratio of TD50/ED50 value in maximal electroconvulsive shock seizure (MES) test; type: ADME, organism-based; details: mouse, in vivo
[5] = Protective index (PI),anticonvulsant activity, ratio of TD50/ED50 value in scMet test; type: ADME, organism-based; details: mouse, in vivo
Mus musculus [6] = assay: Anticonvulsant activity in mice, measured by subcutaneous pentylenetetrazole seizure (scMet) test.; type: functional; details: sc

**Q.** For `COc1ccc(-n2nncc2-c2ccncc2)cc1`, which ED50 (Mus musculus [1]) is on record?
**A.** Its ED50 is 311 mg/kg.

**Q.** What about the TD50 (Mus musculus [2]) of the same compound?
**A.** Its TD50 is 545 mg/kg.

**Q.** What about the selectivity ratio [3] of the same compound?
**A.** Its selectivity ratio is 1.75.

**Q.** With `FC(F)(F)c1ccc(N2N=NCC2c2ccncc2)cc1` (configuration not stated) as the compound, how does the selectivity ratio [4] read?
**A.** Its selectivity ratio is over 2.9.

**Q.** What about the selectivity ratio [5] of the same compound?
**A.** The selectivity ratio was over 4.8.

**Q.** And the ED50 (Mus musculus [6])?
**A.** The ED50 was 421 mg/kg.

**Q.** And the ED50 (Mus musculus [1])?
**A.** Its ED50 is 689 mg/kg.

**Q.** What about the TD50 (Mus musculus [2]) of the same compound?
**A.** The TD50 was over 2000 mg/kg.

**Q.** What does the source list for `Brc1ccc(-n2nncc2-c2cccnc2)cc1`?
**A.** selectivity ratio [4]: 5.7; selectivity ratio [5]: 12.2; ED50 (Mus musculus [6]): 40.6 mg/kg; ED50 (Mus musculus [1]): 87.2 mg/kg; TD50 (Mus musculus [2]): 496 mg/kg

**Q.** Which selectivity ratio [4] does the source give for `c1ccc(-n2nncc2-c2ccccn2)cc1` here?
**A.** The selectivity ratio was 2.1.

**Q.** And the selectivity ratio [5]?
**A.** Its selectivity ratio is 3.4.

**Q.** And the ED50 (Mus musculus [6])?
**A.** The ED50 was 25.6 mg/kg.

**Q.** And the ED50 (Mus musculus [1])?
**A.** The ED50 was 41.1 mg/kg.

**Q.** And the TD50 (Mus musculus [2])?
**A.** Its TD50 is 87.9 mg/kg.

**Q.** With `Fc1ccc(-n2nncc2-c2ccncc2)cc1` as the compound, how does the selectivity ratio [4] read?
**A.** The selectivity ratio was 2.

**Q.** And the selectivity ratio [5]?
**A.** Its selectivity ratio is 1.5.

**Q.** And the ED50 (Mus musculus [6])?
**A.** The ED50 was 119 mg/kg.

**Q.** And the ED50 (Mus musculus [1])?
**A.** The ED50 was 91.6 mg/kg.

**Q.** And the TD50 (Mus musculus [2])?
**A.** The TD50 was 181 mg/kg.

**Q.** Which results are given for `c1ccc(-n2nncc2-c2cccnc2)cc1`?
**A.** selectivity ratio [4]: 1.7; selectivity ratio [5]: 3.3; ED50 (Mus musculus [6]): 39.7 mg/kg; ED50 (Mus musculus [1]): 76.4 mg/kg; TD50 (Mus musculus [2]): 133 mg/kg

**Q.** With `Fc1ccc(N2N=NCC2c2ccncc2)cc1` (configuration not stated) as the compound, how does the selectivity ratio [4] read?
**A.** Its selectivity ratio is 2.5.

**Q.** What about the selectivity ratio [5] of the same compound?
**A.** Its selectivity ratio is 2.9.

**Q.** And the ED50 (Mus musculus [6])?
**A.** Its ED50 is 203 mg/kg.

**Q.** And the ED50 (Mus musculus [1])?
**A.** The ED50 was 239 mg/kg.

**Q.** What about the TD50 (Mus musculus [2]) of the same compound?
**A.** The TD50 was 586 mg/kg.

**Q.** For `Clc1ccc(-n2nncc2-c2ccccn2)cc1`, which selectivity ratio [4] is on record?
**A.** The selectivity ratio was 2.5.

**Q.** What about the selectivity ratio [5] of the same compound?
**A.** Its selectivity ratio is 4.6.

**Q.** What about the ED50 (Mus musculus [6]) of the same compound?
**A.** Its ED50 is 50.4 mg/kg.

**Q.** What about the ED50 (Mus musculus [1]) of the same compound?
**A.** Its ED50 is 95.2 mg/kg.

**Q.** And the TD50 (Mus musculus [2])?
**A.** The TD50 was 234 mg/kg.

**Q.** Which selectivity ratio [4] does the source give for `FC(F)(F)c1cccc(N2N=NCC2c2ccncc2)c1` (configuration not stated) here?
**A.** Its selectivity ratio is 2.63.

**Q.** What about the selectivity ratio [5] of the same compound?
**A.** The selectivity ratio was 2.69.

**Q.** And the ED50 (Mus musculus [6])?
**A.** Its ED50 is 51 mg/kg.

**Q.** What about the ED50 (Mus musculus [1]) of the same compound?
**A.** The ED50 was 52.1 mg/kg.

**Q.** What about the TD50 (Mus musculus [2]) of the same compound?
**A.** Its TD50 is 137 mg/kg.

**Q.** With `Clc1cccc(-n2nncc2-c2ccncc2)c1` as the compound, how does the selectivity ratio [4] read?
**A.** The selectivity ratio was 1.8.

**Q.** What about the selectivity ratio [5] of the same compound?
**A.** Its selectivity ratio is 2.4.

**Q.** What about the ED50 (Mus musculus [6]) of the same compound?
**A.** The ED50 was 29.2 mg/kg.

**Q.** And the ED50 (Mus musculus [1])?
**A.** The ED50 was 38 mg/kg.

**Q.** And the TD50 (Mus musculus [2])?
**A.** Its TD50 is 68.7 mg/kg.

**Q.** Which results are given for `FC(F)(F)c1cccc(-n2nncc2-c2ccncc2)c1`?
**A.** selectivity ratio [4]: 0.99; selectivity ratio [5]: 1.52; ED50 (Mus musculus [6]): 44.7 mg/kg; ED50 (Mus musculus [1]): 68.2 mg/kg; TD50 (Mus musculus [2]): 68 mg/kg

**Q.** Which selectivity ratio [4] does the source give for `Clc1ccc(-n2nncc2-c2ccccc2)cc1` here?
**A.** The selectivity ratio was 2.

**Q.** What about the selectivity ratio [5] of the same compound?
**A.** Its selectivity ratio is 4.9.

**Q.** What about the ED50 (Mus musculus [6]) of the same compound?
**A.** The ED50 was 95.2 mg/kg.

**Q.** What about the ED50 (Mus musculus [1]) of the same compound?
**A.** The ED50 was 233 mg/kg.

**Q.** And the TD50 (Mus musculus [2])?
**A.** The TD50 was 466 mg/kg.

**Q.** For `Clc1ccc(-n2nncc2-c2cccnc2)cc1`, which selectivity ratio [4] is on record?
**A.** The selectivity ratio was 3.7.

**Q.** And the selectivity ratio [5]?
**A.** The selectivity ratio was 9.1.

**Q.** And the ED50 (Mus musculus [6])?
**A.** The ED50 was 26.9 mg/kg.

**Q.** What about the ED50 (Mus musculus [1]) of the same compound?
**A.** Its ED50 is 65.8 mg/kg.

**Q.** What about the TD50 (Mus musculus [2]) of the same compound?
**A.** Its TD50 is 245 mg/kg.

**Q.** With `FC(F)(F)c1ccc(-n2nncc2-c2cccnc2)cc1` as the compound, how does the selectivity ratio [4] read?
**A.** Its selectivity ratio is 4.1.

**Q.** What about the selectivity ratio [5] of the same compound?
**A.** Its selectivity ratio is 4.2.

**Q.** What about the ED50 (Mus musculus [6]) of the same compound?
**A.** Its ED50 is 90.5 mg/kg.

**Q.** What about the ED50 (Mus musculus [1]) of the same compound?
**A.** The ED50 was 92.3 mg/kg.

**Q.** And the TD50 (Mus musculus [2])?
**A.** Its TD50 is 379 mg/kg.

**Q.** Which selectivity ratio [4] does the source give for `c1ccc(-n2nncc2-c2ccncc2)cc1` here?
**A.** Its selectivity ratio is 2.

**Q.** What about the selectivity ratio [5] of the same compound?
**A.** Its selectivity ratio is 2.1.

**Q.** What about the ED50 (Mus musculus [6]) of the same compound?
**A.** The ED50 was 73.7 mg/kg.

**Q.** And the ED50 (Mus musculus [1])?
**A.** Its ED50 is 78.8 mg/kg.

**Q.** What about the TD50 (Mus musculus [2]) of the same compound?
**A.** Its TD50 is 157 mg/kg.

**Q.** Which selectivity ratio [4] does the source give for `Fc1ccc(-n2nncc2-c2cccnc2)cc1` here?
**A.** The selectivity ratio was 2.5.

**Q.** And the selectivity ratio [5]?
**A.** Its selectivity ratio is 3.5.

**Q.** And the ED50 (Mus musculus [6])?
**A.** The ED50 was 47.9 mg/kg.

**Q.** What about the ED50 (Mus musculus [1]) of the same compound?
**A.** Its ED50 is 74.6 mg/kg.

**Q.** And the TD50 (Mus musculus [2])?
**A.** Its TD50 is 168 mg/kg.

**Q.** For `Clc1ccc(N2N=NCC2c2ccncc2)cc1` (configuration not stated), which selectivity ratio [4] is on record?
**A.** The selectivity ratio was 4.4.

**Q.** What about the selectivity ratio [5] of the same compound?
**A.** The selectivity ratio was 26.

**Q.** What about the ED50 (Mus musculus [1]) of the same compound?
**A.** Its ED50 is 257 mg/kg.

**Q.** What about the TD50 (Mus musculus [2]) of the same compound?
**A.** Its TD50 is 1130 mg/kg.

**Q.** Which results are given for `Fc1ccc(-n2nncc2-c2ccccn2)cc1F`?
**A.** selectivity ratio [4]: 3.1; selectivity ratio [5]: 1.6; ED50 (Mus musculus [6]): 123 mg/kg; ED50 (Mus musculus [1]): 62.5 mg/kg; TD50 (Mus musculus [2]): 123 mg/kg

**Q.** With `Brc1ccc(-n2nncc2-c2ccccn2)cc1` as the compound, how does the selectivity ratio [4] read?
**A.** The selectivity ratio was 3.9.

**Q.** And the selectivity ratio [5]?
**A.** Its selectivity ratio is 3.

**Q.** What about the ED50 (Mus musculus [6]) of the same compound?
**A.** The ED50 was 88.6 mg/kg.

**Q.** And the ED50 (Mus musculus [1])?
**A.** The ED50 was 68 mg/kg.

**Q.** And the TD50 (Mus musculus [2])?
**A.** Its TD50 is 265 mg/kg.

**Q.** What does the source list for `c1ccc(N2N=NCC2c2ccncc2)cc1` (configuration not stated)?
**A.** selectivity ratio [4]: 3.6; selectivity ratio [5]: 5.6; ED50 (Mus musculus [6]): 107 mg/kg; ED50 (Mus musculus [1]): 165 mg/kg; TD50 (Mus musculus [2]): 590 mg/kg

**Q.** Which results are given for `CCC1(C)CC(=O)NC1=O` (configuration not stated) [ETHOSUXIMIDE]?
**A.** ED50 (Mus musculus [6]): 130 mg/kg; TD50 (Mus musculus [2]): 441 mg/kg

**Q.** For `CCC1(c2ccccc2)C(=O)NC(=O)NC1=O` [PHENOBARBITAL], which TD50 (Mus musculus [2]) is on record?
**A.** Its TD50 is 69 mg/kg.

**Q.** Which ED50 (Mus musculus [6]) does the source give for `CCCC(CCC)C(=O)O` [VALPROIC ACID] here?
**A.** The ED50 was 149 mg/kg.

**Q.** And the ED50 (Mus musculus [1])?
**A.** Its ED50 is 272 mg/kg.

Source: ChEMBL document CHEMBL1123951, “Triazolines. 14. 1,2,3-Triazolines and triazoles, a new class of anticonvulsants. Drug design and structure-activity relationships” (J Med Chem, 1988)
